Assay results as given in BindingDB's records for doi:10.1021/jm960093o (Agouron Pharmaceuticals, 1996).

Biological target: T1, Dimer of Gag-Pol polyprotein [489-587] (Human immunodeficiency virus 1, UniProt P12497)
T1 construct: 489-587
Experiment: Protease Inhibition Assay
Conditions: pH 5.6; 37 °C
Experimental: Protease activity was measured by continuous chromogenic assay. The chromogenic peptide His-Lys-Ala-Arg-Val-Leu- (p-NO2-Phe)-Glu-Ala-Nleu-Ser (Bachem) was used as a substrate. Reactions were followed by the decrease of absorbance at 300 nm measured by spectrophotometer. Experimental results were analyzed by the nonlinear regression analysis, using a mathematical model for tight binding inhibitors.

Compound	IC50 [µM]
CC(C)(C)NC(=O)c1ccccc1CC(O)CSc1ccccc1NC(=O)C(C)(C)C (centres undefined) [N-tert-butyl-2-(3-{[2-(2,2-dimethylpropanamido)phenyl]sulfanyl}-2-hydroxypropyl)benzamide]	> 200
CC(C)(C)NC(=O)c1ccccc1NCC(O)Cc1ccc2ccccc2c1C(=O)NC(C)(C)C (centres undefined) [N-tert-butyl-2-(3-{[2-(tert-butylcarbamoyl)phenyl]amino}-2-hydroxypropyl)naphthalene-1-carboxamide]	120
CC(C)(C)NC(=O)c1ccccc1SCC(O)c1ccccc1C(=O)NC(C)(C)C (centres undefined) [N-tert-butyl-2-({2-[2-(tert-butylcarbamoyl)phenyl]-2-hydroxyethyl}sulfanyl)benzamide]	> 200
CC(C)N1CCC(CC(O)CCc2ccc3ccccc3c2C(=O)NC(C)(C)C)=C(C(=O)NC(C)(C)C)C1 (centres undefined) [N-tert-butyl-4-{4-[1-(tert-butylcarbamoyl)naphthalen-2-yl]-2-hydroxybutyl}-1-(propan-2-yl)-1,2,5,6-tetrahydropyridine-3-carboxamide]	70
